Experimental data reported in patent US8822541B2, “Use of targeted nitroxide agents in mitigating or treating radiation injury” (University of Pittsburgh—Of the Commonwealth System of …, priority 2008, dated 2014).

How the values were obtained:
Sprague Dawley rats = assay: Survival of rats subjected to volume-controlled hemorrhagic shock; format: in vivo, rat; conditions: 2 μmol/kg iv
Experimental: Survival of rats subjected to volume-controlled hemorrhagic shock. Following surgical preparation and a 5-min stabilization period to obtain baseline readings, rats were subjected to hemorrhagic shock. Bleeding was carried out in 2 phases.
Initially, 21 ml/kg of blood was withdrawn over 20 min. Immediately thereafter, an additional 12.5 ml/kg of blood was withdrawn over 40 min. Thus, hemorrhage occurred over a total period of 60 min and the total blood loss was 33.5 ml/kg or approximately 55% of the total blood volume. Rats were randomly assigned to receive XJB-5-131 (2 μmol/kg) or its vehicle, a 33:67 (v/v) mixture of DMSO and normal saline. XJB-5-131 solution or vehicle alone was administered as a continuous infusion during the last 20 min of the hemorrhage period. The total volume of fluid infused was 2.8 ml/kg and it was administered intravenously using a syringe pump (KD100, KD Scientific, New Hope, Pa.). […] At the end of the 6 hour observation period, animals that were still alive were euthanized with an overdose of KCl.
Blood pressure was recorded continuously using a commercial strain-gauge transducer, amplifier, and monitor (S90603a, SpaceLabs, Redmond, Wash.). Blood samples (0.5 ml) were collected from the jugular vein at the beginning of hemorrhage (baseline), at the end of hemorrhage (shock) and at the end of resuscitation (resuscitation). Hemoglobin concentration [Hb], lactate and glucose concentration were determined using an auto-analyzer (Model ABL 725, Radiometer Copenhagen, Westlake, Ohio).
A total of sixteen rats were tested in this study. Rats were treated with 2.8 ml/kg of vehicle or the same volume of XJB-5-131 solution during the final 20 min of the bleeding protocol. The total dose of XJB-5-131 infused was 2 μmol/kg. Following profound hemorrhagic shock consistent with the protocol described above for the prior studies, thirteen survived for at least 60 min and received the full dose of either XJB-5-131 solution or the vehicle, a 33:67 (v/v) mixture of DMSO and normal saline. […] None of the between-group differences were statistically significant.

mouse embryonic cells = assay: EPR-based analysis of integration and reduction of nitroxide Gramicidin S-peptidyl conjugates in MECs; format: cell-based; conditions: following incubation with solutions of the compounds
Experimental: Electron paramagnetic resonance (“EPR”) spectroscopy was used to monitor the cellular delivery of compounds 5a and 5b shown in FIG. 3 in mouse embryonic cells (“MEC”).
The following conditions were used during the EPR-based analysis of the integration and reduction of nitroxide Gramicidin S-peptidyl conjugates in MECs. The MECs at a concentration of 10 million MECs per mL were incubated with 10 μM of 4-AT and compound 5a, respectively. Recovered nitroxide radicals in whole cells, mitochondria, and cytosol fractions were resuspended in phosphate buffer saline (“PBS”) in the presence and absence, respectively, of 2 μM K3Fe(CN)6.

rat ileal mucosa = assay: Intestinal mucosal permeability assay (FD4) after hemorrhagic shock; format: in vivo; conditions: intraluminal
Experimental: Intestinal mucosal permeability assay. Animals were allowed access to water but not food for 24 h prior to the experiment in order to decrease the volume of intestinal contents. The rats were instrumented as described above. A midline laparotomy was performed and the small intestine was exteriorized from the duodenojejunal junction to the ileocecal valve. A small incision was made on the antimesenteric aspect of the proximal small intestine and saline solution (1.5 ml) was injected. The bowel was ligated proximally and distally to the incision with 4-0 silk (Look, Reading, Pa.).
The small intestine was compressed gently in aboral direction along its length to displace intestinal contents into the colon. Starting 5 cm from the ileocecal valve, the ileum was partitioned into six contiguous water-tight segments. […]
The remaining four other segments were injected with solutions containing either 4-hydroxy-2,2,6,6-tetramethylpiperidine-N-oxyl (TEMPOL) or one of the Gramicidin S-based compounds. Four different final concentrations of TEMPOL in normal saline were evaluated: 0.1, 1, 5 and 20 mM. […]
Fluorescence of FD4 in the solution inside the beaker and within each gut sac was measured using a fluorescence spectrophotometer (LS-50, Perkin-Elmer, Palo Alto, Calif.) at an excitation wavelength of 492 nm and an emission wavelength of 515 nm. […]

[1] = tested on: Ercc1−/cond; K14-Cre mice; assay: Photoaging after UV-B in Ercc1−/cond; K14-Cre mice; format: in vivo, mouse; conditions: 80 ug in cream daily for five days
Experimental: As a measure of the effect of XJB-5-131 on photoaging, Ercc1^−/cond; K14-Cre mice, which are missing ERCC1 only in the skin, were shaved, treated with a depilatory then irradiated with UV-B light to induce a sunburn (500 J/m^2, the median erythemal dose). Subsequently, the mice were treated with XJB-5-131 (80 ug) emulsified in a cream daily for five days.

## CC(C)C[C@@H](/C=C/[C@H](Cc1ccccc1)C(=O)N1CCC[C@H]1C(=O)N[C@H](C(=O)N[C@@H](CCCNC(=O)OCc1ccccc1)C(=O)NC1CC(C)(C)N([O])C(C)(C)C1)C(C)C)NC(=O)OC(C)(C)C [XJB-5-131]
Sprague Dawley rats
  rats surviving longer than 3 hours after completion of the hemorrhage protocol: Three of the six
  rats surviving the whole 6 hour post-bleeding observation period: one rat
Sprague Dawley rats; no resuscitation
  survival time versus vehicle: survived significantly longer
Mouse embryonic cells
  concentration in the mitochondria of cultured mouse embryonic cells: concentrated in the mitochondria
Rat ileal mucosa
  hemorrhagic shock-induced mucosal hyperpermeability relative to control: approximately 60 % of the control value
  potency relative to TEMPOL: ~1000 fold
[1]
  appearance of UV-B irradiated skin: much more smooth and healthy
